Results as given in patent publication US10570184B2, “GLP-1/glucagon receptor co-agonists for medical use” (Novo Nordisk A/S, priority 2014, dated 2020).
Starred links: 1 amine or outer side, 2 acyl side, 3 side chain; linkers in the order of their positions; H or OH if unused. Non-standard residues stand in square brackets, D forms with d. Residues, ends and D or L forms follow the SMILES beside them. Groups on a side chain read outwards from the residue. *: point of attachment. C18 diacid = O=C(O)CCCCCCCCCCCCCCCCC(=O)*; γGlu = O=C(O)[C@H](CCC(=O)[*:2])N[*:1]; Ac4c = NC1(C(=O)O)CCC1; AEEA = NCCOCCOCC(=O)O; Aib = CC(C)(N)C(=O)O

Key:
[1] = Assay (III) ThT fibrillation assay for physical stability; format: physicochemical; details: 250 μM in 10 mM HEPES buffer, 37° C., shaking 960 rpm
Description: The purpose of this assay is to assess the physical stability of the glucagon derivatives of the invention in aqueous solutions. Low physical stability of a peptide may lead to amyloid fibril formation, which is observed as well-ordered, thread-like macromolecular structures in the sample, which eventually may lead to gel formation. This has traditionally been measured by visual inspection of the sample. However, that kind of measurement is very subjective and depending on the observer. Therefore, the application of a small molecule indicator probe is much more advantageous. Thioflavin T (ThT) is such a probe and has a distinct fluorescence signature when binding to fibrils [Naiki et al. (1989) Anal. Biochem. 177, 244-249; LeVine (1999) Methods. Enzymol. 309, 274-284]. […] The constant t0 is the time needed to reach 50% of maximum fluorescence. The two important parameters describing fibril formation are the lag-time calculated by t0−2τ and the apparent rate constant kapp 1/τ. Samples were prepared freshly before each assay. Each sample composition is described in the legends. The pH of the sample was adjusted to the desired value using appropriate amounts of concentrated NaOH and HCl. Thioflavin T was added to the samples from a stock solution in H2O to a final concentration of 1 μM. Sample aliquots of 200 μl (250 μM of the glucagon derivative in 10 mM HEPES buffer, pH 7.5) were placed in a 96 well microtiter plate (Packard OptiPlate™-96, white polystyrene). Usually, four or eight replica of each sample (corresponding to one test condition) were placed in one column of wells. The plate was sealed with Scotch Pad (Qiagen). Incubation at given temperature, shaking and measurement of the ThT fluorescence emission were done in a Fluoroskan Ascent FL fluorescence platereader (Thermo Labsystems). The temperature was adjusted to 37° C. The plate was incubated with orbital shaking adjusted to 960 rpm with an amplitude of 1 mm. Fluorescence measurement was done using excitation through a 444 nm filter and measurement of emission through a 485 nm filter. Each run was initiated by incubating the plate at the assay temperature for 10 min. The plate was measured every 20 minutes for a desired period of time. Between each measurement, the plate was shaken and heated as described. After completion of the ThT assay the four or eight replica of each sample was pooled and centrifuged at 20000 rpm for 30 minutes at 18° C. The supernatant was filtered through a 0.22 μm filter and an aliquot was transferred to a HPLC vial. The concentration of peptide in the initial sample and in the filtered supernatant was determined by reverse phase HPLC using an appropriate standard as reference. The percentage fraction the concentration of the filtered sample constituted of the initial sample concentration was reported as the recovery. The measurement points were saved in Microsoft Excel format for further processing and curve drawing and fitting was performed using GraphPad Prism. The background emission from ThT in the absence of fibrils was negligible. The data points are typically a mean of four or eight samples and shown with standard deviation error bars. Only data obtained in the same experiment (i.e. samples on the same plate) are presented in the same graph ensuring a relative measure of fibrillation between experiments. The data set may be fitted to Eq. (1).

[2] = target: T1, human GLP-1 receptor (Homo sapiens, UniProt P43220); experiment: Assay (I)(a) GLP-1 receptor activation, CRE luciferase reporter gene assay in BHK cells; format: cell-based; details: without presence of serum albumin; read-out: GLP-1R EC50 (pM) [Assay (I)(a)]
T1 construct: expressed in transfected cells; host or cells: membranes of BHK cells (parent BHKTS13), clone FCW467-12A
T1 sequence (P43220 24-463): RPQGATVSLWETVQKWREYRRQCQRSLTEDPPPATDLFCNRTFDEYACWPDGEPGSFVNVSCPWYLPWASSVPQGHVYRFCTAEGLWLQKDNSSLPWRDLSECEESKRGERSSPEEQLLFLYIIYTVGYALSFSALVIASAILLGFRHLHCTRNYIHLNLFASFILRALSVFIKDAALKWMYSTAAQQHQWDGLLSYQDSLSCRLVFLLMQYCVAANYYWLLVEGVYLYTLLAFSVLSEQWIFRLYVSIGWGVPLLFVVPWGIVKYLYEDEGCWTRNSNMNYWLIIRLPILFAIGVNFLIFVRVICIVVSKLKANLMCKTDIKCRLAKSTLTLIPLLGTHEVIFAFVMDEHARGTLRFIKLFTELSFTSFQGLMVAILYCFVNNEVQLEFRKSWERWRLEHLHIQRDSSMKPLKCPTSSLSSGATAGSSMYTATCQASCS
Outline: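 Stable BHK clone expressing human GLP-1 receptor with CRE-driven firefly luciferase, 5×10EE3 cells/well in medium with 2% ovalbumin and 0.2% Pluronic F-68. Compounds at 1×10EE-13 to 1×10EE-6 M final, 3 h at 37° C.; luminescence read, EC50 (pM) from four-parameter fit.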

[3] = target: T1, human GLP-1 receptor; experiment: Assay (II)(a) GLP-1 receptor binding, 125I-GLP-1 displacement SPA on BHK membranes; details: without presence of serum albumin; read-out: GLP-1R IC50 (nM) [Assay (II)(a)]
Outline: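 Membranes from BHK cells (clone FCW467-12A) stably expressing human GLP-1R were incubated with serially diluted compounds (8×10EE-13 to 8×10EE-7 M before addition) and [125I]-GLP-1-(7-36)NH2 with WGA SPA beads, 2 h at 30° C, pH 7.4. IC50 taken from displacement by non-linear regression. Run at ≤0.001% or 2.0% final serum albumin.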

SMILES | ThT Assay Lag time (h) [Assay (III), pH 7.5] [1] [h] | EC50 [2] [pM] | IC50 [3] [nM]
CC[C@H](C)[C@H](NC(=O)[C@H](CC(C)C)NC(=O)[C@H](Cc1c[nH]c2ccccc12)NC(=O)[C@H](C)NC(=O)[C@@H](NC(=O)[C@H](Cc1ccccc1)NC(=O)[C@H](CC(=O)O)NC(=O)[C@H](CCCNC(=N)N)NC(=O)[C@H](C)NC(=O)[C@H](CCCNC(=N)N)NC(=O)[C@H](CCCNC(=N)N)NC(=O)[C@H](CC(C)C)NC(=O)[C@H](CC(=O)O)NC(=O)[C@H](CC(C)C)NC(=O)[C@H](Cc1ccc(O)cc1)NC(=O)[C@H](CCCCN)NC(=O)[C@H](CO)NC(=O)[C@H](CC(C)C)NC(=O)[C@H](CC(=O)O)NC(=O)[C@H](CO)NC(=O)[C@@H](NC(=O)[C@H](Cc1ccccc1)NC(=O)[C@@H](NC(=O)CNC(=O)[C@H](CCC(N)=O)NC(=O)C(C)(C)NC(=O)[C@@H](N)Cc1c[nH]cn1)[C@@H](C)O)[C@@H](C)O)C(C)C)C(=O)N[C@@H](CO)C(=O)N[C@@H](CCCCNC(=O)CC[C@H](NC(=O)CC[C@H](NC(=O)COCCOCCNC(=O)COCCOCCNC(=O)CC[C@H](NC(=O)CCCCCCCCCCCCCCCCC(=O)O)C(=O)O)C(=O)O)C(=O)O)C(N)=O [Chem. 31, N^ε29-[(4S)-4-carboxy-4-[[(4S)-4-carboxy-4-[[2-[2-[2-[[2-[2-[2-[[(4S)-4-carboxy-4-(17-carboxyheptadecanoylamino)butanoyl]amino]ethoxy]ethoxy]acetyl]amino]ethoxy]ethoxy]acetyl]amino]butanoyl]amino]butanoyl]-[Aib2,Leu10,Leu16,Arg20,Ala24,Ile27,Ser28,Lys29]-Glucagon amide] (H-H[Aib]QGTFTSDLSKYLDLRRARDFVAWLISK([γGlu-γGlu-AEEA-AEEA-γGlu-C18 diacid])-NH2; N-terminus assumed) | 45.0 |  | 
CC[C@H](C)[C@H](NC(=O)[C@H](CC(C)C)NC(=O)[C@H](Cc1c[nH]c2ccccc12)NC(=O)[C@H](CCC(N)=O)NC(=O)[C@@H](NC(=O)[C@H](Cc1ccccc1)NC(=O)[C@H](CC(=O)O)NC(=O)[C@H](CCCNC(=N)N)NC(=O)[C@H](C)NC(=O)[C@H](CCCNC(=N)N)NC(=O)[C@H](CCCNC(=N)N)NC(=O)[C@H](CC(C)C)NC(=O)[C@H](CC(=O)O)NC(=O)[C@H](CC(C)C)NC(=O)[C@H](Cc1ccc(O)cc1)NC(=O)[C@H](CCCCN)NC(=O)[C@H](CO)NC(=O)[C@H](CC(C)C)NC(=O)[C@H](CC(=O)O)NC(=O)[C@H](CO)NC(=O)[C@@H](NC(=O)[C@H](Cc1ccccc1)NC(=O)[C@@H](NC(=O)CNC(=O)[C@H](CCC(N)=O)NC(=O)C(C)(C)NC(=O)[C@@H](N)Cc1c[nH]cn1)[C@@H](C)O)[C@@H](C)O)C(C)C)C(=O)N[C@@H](CO)C(=O)N[C@@H](CCCCNC(=O)CC[C@H](NC(=O)CC[C@H](NC(=O)COCCOCCNC(=O)COCCOCCNC(=O)CC[C@H](NC(=O)CCCCCCCCCCCCCCCCC(=O)O)C(=O)O)C(=O)O)C(=O)O)C(N)=O [Chem. 29, N^ε29-[(4S)-4-carboxy-4-[[(4S)-4-carboxy-4-[[2-[2-[2-[[2-[2-[2-[[(4S)-4-carboxy-4-(17-carboxyheptadecanoylamino)butanoyl]amino]ethoxy]ethoxy]acetyl]amino]ethoxy]ethoxy]acetyl]amino]butanoyl]amino]butanoyl]-[Aib2,Leu10,Leu16,Arg20,Ile27,Ser28,Lys29]-Glucagon amide] (H-H[Aib]QGTFTSDLSKYLDLRRARDFVQWLISK([γGlu-γGlu-AEEA-AEEA-γGlu-C18 diacid])-NH2; N-terminus assumed) | 45.0 |  | 
CC[C@H](C)[C@H](NC(=O)[C@H](CC(C)C)NC(=O)[C@H](Cc1c[nH]c2ccccc12)NC(=O)[C@H](CCC(N)=O)NC(=O)[C@@H](NC(=O)[C@H](Cc1ccccc1)NC(=O)[C@H](CCC(=O)O)NC(=O)[C@H](CCCNC(=N)N)NC(=O)[C@H](C)NC(=O)[C@H](CCCNC(=N)N)NC(=O)[C@H](CCCNC(=N)N)NC(=O)[C@H](CO)NC(=O)[C@H](CCC(=O)O)NC(=O)[C@H](CC(C)C)NC(=O)[C@H](Cc1ccc(O)cc1)NC(=O)[C@H](CCCCN)NC(=O)[C@H](CO)NC(=O)[C@@H](NC(=O)[C@H](CC(=O)O)NC(=O)[C@H](CO)NC(=O)[C@@H](NC(=O)[C@H](Cc1ccccc1)NC(=O)[C@@H](NC(=O)CNC(=O)[C@H](CCC(N)=O)NC(=O)C1(NC(=O)[C@@H](N)Cc2c[nH]cn2)CCC1)[C@@H](C)O)[C@@H](C)O)C(C)C)C(C)C)C(=O)N[C@@H](CCCCNC(=O)CC[C@H](NC(=O)CC[C@H](NC(=O)COCCOCCNC(=O)COCCOCCNC(=O)CC[C@H](NC(=O)CC[C@H](NC(=O)CCCCCCCCCCCCCCCCC(=O)O)C(=O)O)C(=O)O)C(=O)O)C(=O)O)C(=O)N[C@H](C(N)=O)[C@@H](C)O [Chem. 19, N^ε28-[(4S)-4-carboxy-4-[[(4S)-4-carboxy-4-[[2-[2-[2-[[2-[2-[2-[[(4S)-4-carboxy-4-[[(4S)-4-carboxy-4-(17-carboxyheptadecanoylamino)butanoyl]amino]butanoyl]amino]ethoxy]ethoxy]acetyl]amino]ethoxy]ethoxy]acetyl]amino]butanoyl]amino]butanoyl]-[Acb2,Val10,Glu15,Arg20,Glu21,Ile27,Lys28]-Glucagon amide] (H-H[Ac4c]QGTFTSDVSKYLESRRAREFVQWLIK([γGlu-γGlu-AEEA-AEEA-γGlu-γGlu-C18 diacid])T-NH2) | 45.0 |  | 
CC[C@H](C)[C@H](NC(=O)[C@H](CC(C)C)NC(=O)[C@H](Cc1c[nH]c2ccccc12)NC(=O)[C@H](CCC(N)=O)NC(=O)[C@@H](NC(=O)[C@H](Cc1ccccc1)NC(=O)[C@H](CC(=O)O)NC(=O)[C@H](CCC(N)=O)NC(=O)[C@H](C)NC(=O)[C@H](CCCNC(=N)N)NC(=O)[C@H](CCCNC(=N)N)NC(=O)[C@H](CO)NC(=O)[C@H](CCC(=O)O)NC(=O)[C@H](CC(C)C)NC(=O)[C@H](Cc1ccc(O)cc1)NC(=O)[C@H](CCCCN)NC(=O)[C@H](CO)NC(=O)[C@@H](NC(=O)[C@H](CC(=O)O)NC(=O)[C@H](CO)NC(=O)[C@@H](NC(=O)[C@H](Cc1ccccc1)NC(=O)[C@@H](NC(=O)CNC(=O)[C@H](CCC(N)=O)NC(=O)C(C)(C)NC(=O)[C@@H](N)Cc1c[nH]cn1)[C@@H](C)O)[C@@H](C)O)C(C)C)C(C)C)C(=O)N[C@@H](CCCCNC(=O)COCCOCCNC(=O)COCCOCCNC(=O)CC[C@H](NC(=O)CC[C@H](NC(=O)CC[C@H](NC(=O)CCCCCCCCCCCCCCCCC(=O)O)C(=O)O)C(=O)O)C(=O)O)C(=O)N[C@H](C(N)=O)[C@@H](C)O [Chem. 10, N^ε28-[2-[2-[2-[[2-[2-[2-[[(4S)-4-carboxy-4-[[(4S)-4-carboxy-4-[[(4S)-4-carboxy-4-(17-carboxyheptadecanoylamino)butanoyl]amino]butanoyl]amino]butanoyl]amino]ethoxy]ethoxy]acetyl]amino]ethoxy]ethoxy]acetyl]-[Aib2,Val10,Glu15,Ile27,Lys28]-Glucagon amide] (H-H[Aib]QGTFTSDVSKYLESRRAQDFVQWLIK([AEEA-AEEA-γGlu-γGlu-γGlu-C18 diacid])T-NH2) |  | 3 | 0.1
